Biological target: T1, MAGL (Homo sapiens, UniProt Q99685)
T1 sequence (Q99685 1-303): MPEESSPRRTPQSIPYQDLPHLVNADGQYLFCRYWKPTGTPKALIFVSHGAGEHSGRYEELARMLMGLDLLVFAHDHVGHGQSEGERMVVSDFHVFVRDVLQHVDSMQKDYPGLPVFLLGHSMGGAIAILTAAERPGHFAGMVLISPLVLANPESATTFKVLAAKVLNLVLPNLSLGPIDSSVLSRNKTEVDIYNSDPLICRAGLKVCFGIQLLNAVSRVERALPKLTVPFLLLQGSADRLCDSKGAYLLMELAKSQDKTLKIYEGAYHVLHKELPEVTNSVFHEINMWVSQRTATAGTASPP
Experiment: 2-AG assay (MAGL inhibitory activity, hydrolysis of 2-arachidonoylglycerol to arachidonic acid followed by mass spectrometry)
Assay type: biochemical
Details: 8 μM 2-arachidonoylglycerol, 15 min pre-incubation, 30 min incubation at RT, RapidFire MS readout
Summary of the method: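 Arachidonic acid released from 8 μM 2-arachidonoylglycerol was quantified by online SPE triple-quadrupole MS (negative ESI, 303.1→259.1), normalised to d8-arachidonic acid internal standard. Reaction ran 30 min at RT after 15 min RT compound pre-incubation with […] MAGL in TRIS/EDTA/Tween-20 buffer, 2.5% DMSO.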

| IC50 [nM] | Structure (SMILES) |
| --- | --- |
| 2.6 | O=C(N1CC(Oc2cccc(C(F)(F)F)c2Cl)C1)N1CC2(CC(n3cnc(C4CC4)n3)C2)C1 [Example 222, (3-(2-chloro-3-(trifluoromethyl)phenoxy)azetidin-1-yl)(6-(3-cyclopropyl-1H-1,2,4-triazol-1-yl)-2-azaspiro[3.3]heptan-2-yl)methanone] |
| 3 | O=C(N1CC2(CC(n3cnc(C4CC4)n3)C2)C1)N1CC2(C1)CN(S(=O)(=O)c1ccccc1C(F)(F)F)C2 [Example 223, [6-(3-cyclopropyl-1,2,4-triazol-1-yl)-2-azaspiro[3.3]heptan-2-yl]-[2-[2-(trifluoromethyl)phenyl]sulfonyl-2,6-diazaspiro[3.3]heptan-6-yl]methanone] |
| 3 | O=C(N1CC2(CC(n3cnc(C4CC4)n3)C2)C1)N1CC2(C1)CN(S(=O)(=O)C1CCCCC1)C2 [Example 224, (2-cyclohexylsulfonyl-2,6-diazaspiro[3.3]heptan-6-yl)-[6-(3-cyclopropyl-1,2,4-triazol-1-yl)-2-azaspiro[3.3]heptan-2-yl]methanone] |
| 3.3 | O=C(N1CC2(CC(n3cnc(C4CC4)n3)C2)C1)N1CC2(C1)CN(S(=O)(=O)c1ccc(C(F)(F)F)cc1)C2 [Example 225, [6-(3-cyclopropyl-1,2,4-triazol-1-yl)-2-azaspiro[3.3]heptan-2-yl]-[2-[4-(trifluoromethyl)phenyl]sulfonyl-2,6-diazaspiro[3.3]heptan-6-yl]methanone] |
| 3.6 | O=C(N1CC2(CC(n3cnc(C4CC4)n3)C2)C1)N1CC2(C1)CN(S(=O)(=O)c1cc(F)cc(C(F)(F)F)c1)C2 [Example 226, [6-(3-cyclopropyl-1,2,4-triazol-1-yl)-2-azaspiro[3.3]heptan-2-yl]-[2-[3-fluoro-5-(trifluoromethyl)phenyl]sulfonyl-2,6-diazaspiro[3.3]heptan-6-yl]methanone] |
| 3.8 | O=C(N1CCC([C@@H](c2ccc(F)cc2)c2nc(C3CC3)no2)CC1)N1CC2(CC(n3cnc(C4CC4)n3)C2)C1 [Example 227, [4-[(S)-(3-cyclopropyl-1,2,4-oxadiazol-5-yl)-(4-fluorophenyl)methyl]-1-piperidyl]-[6-(3-cyclopropyl-1,2,4-triazol-1-yl)-2-azaspiro[3.3]heptan-2-yl]methanone] |
| 4.2 | O=C(N1CC2(CC(n3cnc(C4CC4)n3)C2)C1)N1CC2(C1)CN(S(=O)(=O)c1ccc(F)cc1Cl)C2 [Example 228, [2-(2-chloro-4-fluoro-phenyl)sulfonyl-2,6-diazaspiro[3.3]heptan-6-yl]-[6-(3-cyclopropyl-1,2,4-triazol-1-yl)-2-azaspiro[3.3]heptan-2-yl]methanone] |
| 4.5 | COC(=O)c1ccccc1CN1CC2(C1)CN(C(=O)N1CC3(CC(n4cnc(C5CC5)n4)C3)C1)C2 [Example 229, methyl 2-[[2-[6-(3-cyclopropyl-1,2,4-triazol-1-yl)-2-azaspiro[3.3]heptane-2-carbonyl]-2,6-diazaspiro[3.3]heptan-6-yl]methyl]benzoate] |
| 4.6 | O=C(N1CC2(CC(n3cnc(C4CC4)n3)C2)C1)N1CC2(C1)CN(S(=O)(=O)c1ccc(OC(F)(F)F)cc1)C2 [Example 230, [6-(3-cyclopropyl-1,2,4-triazol-1-yl)-2-azaspiro[3.3]heptan-2-yl]-[2-[4-(trifluoromethoxy)phenyl]sulfonyl-2,6-diazaspiro[3.3]heptan-6-yl]methanone] |
| 4.6 | O=C(N1CC2(CC(n3cnc(C4CC4)n3)C2)C1)N1CC2(C1)CN(S(=O)(=O)c1ccc(F)cc1F)C2 [Example 231, [6-(3-cyclopropyl-1,2,4-triazol-1-yl)-2-azaspiro[3.3]heptan-2-yl]-[2-(2,4-difluorophenyl)sulfonyl-2,6-diazaspiro[3.3]heptan-6-yl]methanone] |
| 4.6 | O=C(N1CC2(CC(n3cnc(C4CC4)n3)C2)C1)N1CC2(CN(Cc3ccc(C(F)(F)F)cn3)C2)C1 [Example 232] |
| 5.3 | O=C(N1CC2(CC(n3cnc(C4CC4)n3)C2)C1)N1CC2(C1)CN(S(=O)(=O)c1cccc(OC(F)(F)F)c1)C2 [Example 233, [6-(3-cyclopropyl-1,2,4-triazol-1-yl)-2-azaspiro[3.3]heptan-2-yl]-[2-[3-(trifluoromethoxy)phenyl]sulfonyl-2,6-diazaspiro[3.3]heptan-6-yl]methanone] |
| 5.4 | O=C(N1CC2(CC(n3cnc(C4CC4)n3)C2)C1)N1CC2(CN(Cc3ccc(F)cc3F)C2)C1 [Example 234, [6-(3-cyclopropyl-1,2,4-triazol-1-yl)-2-azaspiro[3.3]heptan-2-yl]-[6-[(2,4-difluorophenyl)methyl]-2,6-diazaspiro[3.3]heptan-2-yl]methanone] |
| 6 | O=C(N1CC(Oc2cncc(C3CC3)c2Cl)C1)N1CC2(CC(n3cnc(C4CC4)n3)C2)C1 [Example 235, [3-[(4-chloro-5-cyclopropyl-3-pyridyl)oxy]azetidin-1-yl]-[6-(3-cyclopropyl-1,2,4-triazol-1-yl)-2-azaspiro[3.3]heptan-2-yl]methanone] |
| 6.2 | O=C(N1CC2(CC(n3cnc(C4CC4)n3)C2)C1)N1CC2(C1)CN(S(=O)(=O)c1ccc(F)c(C(F)(F)F)c1)C2 [Example 236, [6-(3-cyclopropyl-1,2,4-triazol-1-yl)-2-azaspiro[3.3]heptan-2-yl]-[2-[4-fluoro-3-(trifluoromethyl)phenyl]sulfonyl-2,6-diazaspiro[3.3]heptan-6-yl]methanone] |
| 6.4 | O=C(N1CC2(CC(n3cnc(C4CC4)n3)C2)C1)N1CC2(C1)CN(S(=O)(=O)N1CCCCC1)C2 [Example 237, [6-(3-cyclopropyl-1,2,4-triazol-1-yl)-2-azaspiro[3.3]heptan-2-yl]-[2-(1-piperidylsulfonyl)-2,6-diazaspiro[3.3]heptan-6-yl]methanone] |
| 6.5 | CS(=O)(=O)c1cc(F)ccc1OC1CCC2(CC1)CN(C(=O)N1CC3(CC(n4cnc(C5CC5)n4)C3)C1)C2 [Example 238, [6-(3-cyclopropyl-1,2,4-triazol-1-yl)-2-azaspiro[3.3]heptan-2-yl]-[7-(4-fluoro-2-mesyl-phenoxy)-2-azaspiro[3.5]nonan-2-yl]methanone] |
| 6.6 | CC(C)(C)CS(=O)(=O)N1CC2(CN(C(=O)N3CC4(CC(n5cnc(C6CC6)n5)C4)C3)C2)C1 [Example 239] |
| 6.8 | N#Cc1ccccc1S(=O)(=O)N1CC2(CN(C(=O)N3CC4(CC(n5cnc(C6CC6)n5)C4)C3)C2)C1 [Example 240] |
| 8.7 | Cc1ccc(OC2CN(C(=O)N3CC4(CC(n5cnc(C6CC6)n5)C4)C3)C2)c(F)c1 [Example 241, (6-(3-cyclopropyl-1H-1,2,4-triazol-1-yl)-2-azaspiro[3.3]heptan-2-yl)(3-(2-fluoro-4-methylphenoxy)azetidin-1-yl)methanone] |
| 8.8 | O=C(N1CC2(CC(n3cnc(C4CC4)n3)C2)C1)N1CC2(C1)CN(S(=O)(=O)c1c(F)cc(F)cc1F)C2 [Example 242, [6-(3-cyclopropyl-1,2,4-triazol-1-yl)-2-azaspiro[3.3]heptan-2-yl]-[2-(2,4,6-trifluorophenyl)sulfonyl-2,6-diazaspiro[3.3]heptan-6-yl]methanone] |
| 8.8 | O=C(N1CC2(CC(n3cnc(C4CC4)n3)C2)C1)N1CC2(C1)CN(S(=O)(=O)c1cccnc1Cl)C2 [Example 243, [2-[(2-chloro-3-pyridyl)sulfonyl]-2,6-diazaspiro[3.3]heptan-6-yl]-[6-(3-cyclopropyl-1,2,4-triazol-1-yl)-2-azaspiro[3.3]heptan-2-yl]methanone] |
